Patent US9610363B2, “Methods for inhibiting starvation of a cell” (PRESIDENT AND FELLOWS OF HARVARD COLLEGE, priority 2009, dated 2017)
Entries after “also recorded” stand apart in the source; their conditions may differ.

Tests used:
[1] = system: cones; test: Quantification of cone survival in PDE-β−/− mice (cone-lacZ staining of retinal flat mounts); type: in vivo; settings: for cone survival after 4 weeks of treatment: PW7, insulin daily i.p. from P21, streptozotocin single i.p. injection at P21, vs uninjected control; for cone survival after 7 weeks of treatment: PW10, treatment from PW3, vs untreated
Procedure: (§1) Rapamycin, Streptozotocin and Insulin treatments were performed as follows. Rapamycin was diluted to 10 mg/ml in ethanol. The stock was diluted to 0.015 mg/ml in drinking water over a period of 2 weeks. A single intraperitoneal injection of 150 μl (12 mg/ml in 0.1M citric acid, ph4.5) of Streptozotocin was injected at postnatal day (P) 21. Insulin was injected intraperitoneally daily starting at P21. The concentration was increased weekly such that the first week, 10 U/kg body weight, the second 15 U/kg, the third 20 U/kg and fourth 30 U/kg body weight, were injected. In the treatment that lasted 7 weeks 30 U/kg body weight were injected for the remaining 3 weeks. Blood glucose levels were measured by collecting a drop of blood from the tail directly onto a test strip from TrueTrack smart system (CVS pharmacy). Eye bleeds were avoided due to the fact that cell survival in the retina was being assayed.
Quantification of cone survival was performed as follows. The colors of the bright light image were inverted and processed with Imaris software (Bitplane Inc) to calculate the percentage of blue surface area versus the total retinal surface area (see also FIG. 17). A minimum of 8 retinae per treatment, and for the control, were analyzed. P-values were calculated by the student's t-test.

[2] = system: p*-mTOR; test: Retinal explant culture, p*-mTOR staining; type: cell-based, mice; settings: wild type retinal explants, 4 hours culture, media with or without glucose
Procedure: Retinal explant cultures: The retina was dissected free from other ocular tissues in DMEM, and then incubated in conditions according to the chart in FIG. 10a. Regular DMEM was at 4.5 g/L glucose, low glucose was at 1 g/L, leucine was added at 200 μM and FCS at 10%. Incubation was performed for 4 h and the retinae were fixed and processed for antibody staining as described below.
(§2) Whole mount and section antibody staining were performed as previously (Punzo, C. & Cepko, C. L. (2008) Dev Dyn 237, 1034-42) described with the following modifications. Antibody staining for LAMP-2: Triton was replaced with 0.01% Saponin. Antibody staining for p*-mTOR and p*-S6: PBS was replaced by TBS in every step of the procedure. […] Time points analyzed for the rod and cone death kinetics (P: postnatal day; PW: postnatal week): PDE-β−/−: P10-P20 daily, PW3-10 weekly, PW 12, PW15, PW18, PW45; PDE-γ-KO: P10-P20 daily, PW3-PW10 weekly, PW15, PW25, PW45; Rho-KO: PW4-PW8 weekly, PW10, PW11, PW17, PW20, PW25, PW27, PW31, PW34, PW37, PW45, PW55, PW80; P23H: PW5, PW10, PW16, PW25, PW30, PW35, PW40, PW65, PW70, PW75, PW80, PW85.

[3] = Behavioral assays (open field and step tests) in rd1 mutant mice; type: in vivo, mouse; settings: infected rd1 animals
Excerpt: FIG. 23 is a graph depicting the open field and step tests performed on the rd1 mutant mice in which the AAV vector was introduced.
This observation also confirms that outer segment shortening was due to insufficient glucose.

[4] = system: HEK 293 cells; test: Expression of Fbp-1, Pck-1 and Pcx from the AAV vector (PCR, Western blot in HEK 293 cells); type: cell-based
Procedure: FIGS. 22A and B depict the mRNA expression and protein expression of gluconeogenesis genes. […] Gapdh is used as a loading control and water is used as a negative control.
Two ways were used to supply cells with more glucose. One was to increase intracellular glucose levels by providing cones with the means to synthesize their own glucose. Glucose synthesis, called gluconeogenesis, is carried out primarily in the liver, and to a limited extent in kidney and muscle. One might consider that the enzymes required for glucose synthesis could be those that break down glucose, during the process of glycolysis. However, some of the steps in glycolysis are energy producing and thus to reverse them requires a different process. Three enzymes must be supplied to allow the glucose to be synthesized, utilizing pyruvate or lactate as a starting point, and utilizing ATP and GTP to go uphill energetically in the synthesis. The first energy requiring step is catalyzed by Pcx (Pcx: Pyruvate Carboxylase) and utilizes ATP. A subsequent energy requiring step is catalyzed by Pck1: Phosphoenolpyruvate carboxykinase) and requires GTP. […] The endogenous expression of Fbp1, PCk1, and Pcx and the expression Fbp1, PCk1, and Pcx in the AAV vector (“construct”) was analyzed by PCR analysis (FIG. 22A) and Western blot analysis (FIG. 22B).

[5] = system: cones; test: AAV2/5 gluconeogenesis vector tested in vivo in the rd1 mutant mouse, cone survival and morphology
[6] = system: HIF-1α; test: Immunofluorescent staining for HIF-1α in cones of PDE-β−/− mice; type: in vivo; settings: PDE-β−/− mice treated for 4 weeks with insulin
Procedure: as §1, with “Eye bleeds were avoided due to the fact that cell survival in the retina was being assayed.” left out
as §2, with “modifications.” for “modifications. Antibody staining for LAMP-2: Triton was replaced with 0.01% Saponin. Antibody staining for p*-mTOR and p*-S6: PBS was replaced by TBS in every step of the procedure.”

[7] = system: photoreceptor; settings: cited from earlier work

Q: For CN(N=O)C(=O)N[C@H]1C(O)O[C@H](CO)[C@@H](O)[C@@H]1O (mixture of isomers) [streptozotocin], which “cone survival after 4 weeks of treatment” value [1] is on record?
A: Its value is “decrease in cone survival”.

Q: What about the “cone survival after 7 weeks of treatment” value [1] of the same molecule?
A: Its value is “no significant difference in cone survival”.

Q: With O=C[C@H](O)[C@@H](O)[C@H](O)[C@H](O)CO [glucose] as the molecule, how does the “dorsal p*-mTOR in cones” value [2] read?
A: The value was “abolished in the absence of glucose; also recorded: only detected when glucose was present”.

Q: Which results are given for “CMV promotor-Pcx-IRES-Fbp1-IRES-Pck1: AAV 2/5 virus carrying Pcx, Fbp1 and Pck1 on one transcript under the CMV promoter with IRES elements”?
A: vision in two behavioral assays [3]: functional vision; mRNA expression of Fbp-1, Pck-1 and Pcx ([4]; PCR analysis, Gapdh loading control): expresses these genes; protein expression of Fbp-1, Pck-1 and Pcx ([4]; Western blot, transfected HEK 293 cells vs retina and HEK 293 control samples): upregulated; morphology of the cone outer segments [5]: remarkably similar to that of normal cones; cone survival ([5]; relative to controls): additional cone survival relative to controls

Q: Which “cone survival after 4 weeks of treatment” value [1] does the source give for insulin here?
A: The value was “improved cone survival; also recorded: prolonged cone survival”.

Q: What about the “cone survival after 7 weeks of treatment” value [1] of the same molecule?
A: Its value is “did not show any significant improvement of cone survival; also recorded: no significant difference in cone survival”.

Q: And the “upregulation of HIF-1α in cones” value [6]?
A: The value was “did not show the upregulation of HIF-1α; also recorded: prevented the upregulation of HIF-1α”.

B1: proinsulin (protein, UniProt P01326 25-110, looked up)
pro-form: FVKQHLCGSHLVEALYLVCGERGFFYTPMSRREVEDPQVAQLELGGGPGAGDLQTLALEVAQQKRGIVDQCCTSICSLYQLENYCN
modifications: pro-form
Q: For B1, which photoreceptor death ([7]; constitutive expression, rd10 mouse model of RP) is on record?
A: Its photoreceptor death is “delays photoreceptor death, both of rods and cones”.

Q: What about the hyperglycemia ([7]; mice treated with proinsulin) of the same molecule?
A: The hyperglycemia was “did not develop hyperglycemia”.
